Test results taken from patent US20200031920A1, “Combination Therapy for Treating Cancer” (The George Washington University, priority 2017, published 2020).

Assays:
SKOV3 CR cells [1] = experiment: combinational high throughput screen with cisplatin; format: cell-based; conditions: in combination with DMSO, 1 μM cisplatin or 20 μM cisplatin
Excerpt: A combinational HTS using multiple compound libraries including NPC (NIH Pharmaceutical Collection), MIPE (Mechanism interrogation plate), and LOPAC (The Library of Pharmacologically Active Compounds) was used to identify compounds that can overcome cisplatin resistance of SKOV3 CR cells (FIG. 5). The library of pharmacologically active compounds (LOPAC®) of 1280 compounds (1) was purchased from Sigma. The NCGC Pharmaceutical Collection (NPC) of 2816 compounds and mechanism interrogation plate (MIPE) library of 1920 compounds were previously described. Bromberg, J Clin Invest 109: 1139-1142 (2002) and Buchert et al., Oncogene 35: 939-951 (2016). Compounds from all libraries were obtained as powder and dissolved in dimethyl sulfoxide (DMSO) […]. Combinational HTS was performed as previously described. Szasz et al., Oncotarget 7: 49322-49333 (2016). A total of 6,016 compounds were screened. […] In the second screen, these 112 compounds were selected for a dose-response confirmation screen in combination with DMSO, 1 μM cisplatin or 20 μM cisplatin (FIG. 5).

SKOV3 CR cells [2] = experiment: cell viability / proliferation (SRB) assay, cisplatin resistant SKOV3 CR cells; format: cell-based; conditions: for sensitization of SKOV3 CR cells to cisplatin (proliferation): combination with cisplatin at different doses, FIG. 13: 0.4 μM LY2784544, five days; for medium CI (combination index): combination with cisplatin, CI<1 synergism
Experimental: (§1) FIG. 1 is a line graph showing the proliferation of SKOV3 parental and SKOV3 CR cells treated with increasing concentrations of cisplatin for five days. Data are represented as mean±SD from three independent experiments performed in triplicate. Indicated IC50 values represent the mean of two independent experiments performed in triplicate.
(§2) FIG. 13 is a line graph showing the proliferation of SKOV3 parental and SKOV3 CR cells treated with increasing concentrations of cisplatin and 0.4 μM LY2784544 for five days. Data are represented as mean±SD from three independent experiments performed in triplicate.
(§3) Cisplatin resistant ovarian cancer cell lines were generated using procedures as described previously. Jazaeri et al., Mol Cancer Ther 12: 1958-1967 (2013). Ovarian cancer cells SKOV3 were cultured in the medium with cisplatin (Sigma-Aldrich) for three weeks, followed by release to cisplatin-free medium for another three weeks. In the next cycle, the cisplatin treatment was repeated in the medium with an increased concentration of cisplatin. After six-cycle treatment, cells were identified that were able to grow in the medium with a high concentration of cisplatin. These cisplatin resistant cells were named as SKOV3 CR (FIG. 1).
(§4) The results obtained from combinational HTS were confirmed by testing whether LY2784544 overcomes cisplatin resistance in ovarian cancer cells using multiple assays. […] The Combination index (CI), which quantitatively describes the interaction between drugs including synergism (CI<1), additive effect (CI=1), and antagonism (CI>1), was calculated.

[3] = test system: reactive oxygen species (ROS); experiment: ROS production (CellROX Orange reagent); format: cell-based; conditions: SKOV3 cells, YCG063 20 μM, cisplatin 1 μM, 24 hr
Experimental: FIG. 69 are bar graphs ((A)-(C) and (E)-(F)) and illustrations ((D) and (G)) showing that reactive oxygen species (ROS) induces IL-11 expression. (A) is a bar graph showing quantification of ROS production in SKOV3 and SKOV3 CR cells. Data are represented as means±SD from three independent experiments. **p<0.01. Scale bar, 100 μm. (B) is a bar graph showing quantification of ROS production in SKOV3 CR cells after treatment with the ROS inhibitor YCG063 at 20 μM for 24 hr. Data are represented as means±SD from three independent experiments. ***p<0.001. (C) is a bar graph showing IL-11 levels measured by ELISA in the medium of SKOV3 CR cells treated with YCG063 at 20 μM for 24 hr. Data are represented as mean±SD from three independent experiments performed in triplicate. ***p<0.001. […] (E) is a bar graph showing quantification of ROS production in SKOV3 cells after treated with the ROS inhibitor YCG063 (20 μM), cisplatin (1 μM), or both for 24 hr. […] (F) is a bar graph showing IL-11 levels measured by ELISA in SKOV3 cells treated with YCG063 (20 μM), cisplatin (1 μM) or both for 24 hr. […]
DNA damage induces generation of reactive oxygen species (ROS). […] ROS was detected with a live cell-permeable, fluorophore CellROX Orange reagent (Thermo Fisher Scientific) according to the manufacturer's instructions. […] ROS intensity was analyzed using ImageJ (NIH) software. […]

IL-11 = IL-11 secretion by ELISA in cell culture medium; format: cell-based, human; conditions: 24 hr
Experimental: FIG. 69 are bar graphs ((A)-(C) and (E)-(F)) and illustrations ((D) and (G)) showing that reactive oxygen species (ROS) induces IL-11 expression. (A) is a bar graph showing quantification of ROS production in SKOV3 and SKOV3 CR cells. Data are represented as means±SD from three independent experiments. **p<0.01. Scale bar, 100 μm. (B) is a bar graph showing quantification of ROS production in SKOV3 CR cells after treatment with the ROS inhibitor YCG063 at 20 μM for 24 hr. Data are represented as means±SD from three independent experiments. ***p<0.001. (C) is a bar graph showing IL-11 levels measured by ELISA in the medium of SKOV3 CR cells treated with YCG063 at 20 μM for 24 hr. Data are represented as mean±SD from three independent experiments performed in triplicate. ***p<0.001. (D) is an illustration showing an immunoblot of phosphorylated JAK2 and STAT5 in SKOV3 CR cells treated with YCG063 (20 μM) for 24 hr. (E) is a bar graph showing quantification of ROS production in SKOV3 cells after treated with the ROS inhibitor YCG063 (20 μM), cisplatin (1 μM), or both for 24 hr. Data are represented as means±SD from three independent experiments. **p<0.01, ***p<0.001, n.s. means not significant by one-way ANOVA. (F) is a bar graph showing IL-11 levels measured by ELISA in SKOV3 cells treated with YCG063 (20 μM), cisplatin (1 μM) or both for 24 hr. Data are represented as mean±SD from three independent experiments performed in triplicate. ***p<0.001 by one-way ANOVA. (G) is an illustration showing an immunoblot of phosphorylated JAK2 and STAT5 in SKOV3 CR cells treated with YCG063 (20 μM), cisplatin (1 μM) or both for 24 hr.
Next, the factor from medium that contributes to cisplatin resistance of SKOV3 CR cells was investigated. […] The cell-free culture medium, mouse serum, and patient serum were analyzed for IL-11 levels using a human IL-11 ELISA kit (R&D Systems) according to the manufacturer's instructions. The absorbance was read at 450 nm using a microplate reader (BioTek). The data were normalized to the cell number. […]

[4] = test system: phosphorylation of JAK2 (Y1007/1008) and STAT5 (Y694); experiment: western blot of JAK2/STAT5 signaling; format: cell-based
Experimental: FIG. 22 is an illustration showing that LY2784544 down-regulates JAK2/STAT5 signaling in SKOV3 CR cells. Cells were treated with the indicated concentrations of LY2784544 for 48 hr.
FIG. 23 is an illustration showing the immunoblotting for the indicated targets in SKOV3 CR cells treated with vehicle (DMSO), 3 μM LY2784544, 5 μM cisplatin, or the combination for 48 hr.
To investigate the molecular mechanism by which the JAK2-mediated pathway regulates cisplatin resistance of ovarian cancer, the activation of the JAK2-mediated pathway in paired sensitive cell line (SKOV3, IGROV1, PEO1) and resistant cell lines (SKOV3 CR, IGROV1 CR, PEO4) was examined by western blot. Compared to cisplatin sensitive cells SKOV3 or IGROV1, the JAK2 protein levels are not changed in cisplatin resistant cells SKOV3 CR, IGROV1 CR, or PEO4.
The effects of LY2784544 on the JAK2/STAT5 signaling pathway in both SKOV3 and SKOV3 CR cells were examined.

FRA1 = experiment: immunoblot of phosphorylated and total FRA1; format: cell-based; conditions: SKOV3 CR cells, 20 μM, 24 hr
Excerpt: FIG. 70 are illustrations ((A), (B), and (D)) and a bar graph (C) showing that ROS induces IL-11 expression by promoting expression of FOSL1 (FRA1). (A) is an illustration showing total and phosphorylated levels of FRA1 in SKOV3 and SKOV3 CR cells. […] (C) is a bar graph showing IL-11 levels measured by ELISA in the medium of SKOV3 CR cells transfected with FOSL1 siRNA for 48 hr. Data are represented as mean±SD from three independent experiments performed in triplicate. ***p<0.001. (D) is an illustration showing an immunoblot of phosphorylated and total FRA1 protein in SKOV3 CR cells treated with YCG063 20 μM for 24 hr.
To achieve this goal, pathway analyses using PathwayNet were conducted, which identified a total of 20 transcription factors that likely regulate IL-11. […] It was next tested whether ROS is required for activation or expression of FRA1 by treating SKOV3 CR cells with YGC063.

SKOV3 cells = experiment: cell viability / proliferation (SRB) assay, SKOV3 parental cells; format: cell-based
Experimental: as §1, §2, §3, §4

NS(=O)(=O)OC[C@@H]1C[C@@H](n2ccc3c(N[C@H]4CCc5ccccc54)ncnc32)C[C@@H]1O [MLN4924]
sensitization to cisplatin in second (dose-response confirmation) screen (SKOV3 CR cells [1]): significantly sensitize SKOV3 CR cells to cisplatin | sensitization of SKOV3 CR cells to cisplatin (proliferation) (SKOV3 CR cells [2]): can sensitize SKOV3 CR cells to cisplatin

C/C(=N\NC(=S)N1CCC1)c1ccccn1 [NSC319726]
sensitization to cisplatin in second (dose-response confirmation) screen (SKOV3 CR cells [1]): significantly sensitize SKOV3 CR cells to cisplatin | sensitization of SKOV3 CR cells to cisplatin (proliferation) (SKOV3 CR cells [2]): can sensitize SKOV3 CR cells to cisplatin

Cc1cnc(Nc2ccc(CN3CCOCC3)cc2)nc1Nc1cccc(S(=O)(=O)NC(C)(C)C)c1 [TG46]
medium CI (combination index) (SKOV3 CR cells [2]; SKOV3 CR cells): 0.77

Cc1cnc(Nc2ccc(OCCN3CCCC3)cc2)nc1Nc1cccc(S(=O)(=O)NC(C)(C)C)c1 [TG101348]
medium CI (combination index) (SKOV3 CR cells [2]; SKOV3 CR cells): 0.77

CCCCCOc1ccc(/C=N/NC(=O)CSc2c([N+](=O)[O-])ncn2C)cc1 [YCG063]
ROS production [3]: suppressed ROS production in SKOV3 cells | IL-11 secretion (IL-11; SKOV3 CR cells, YCG063 20 μM): significantly reduced IL-11 secretion | cisplatin-induced IL-11 secretion (IL-11; SKOV3 cells, YCG063 20 μM with cisplatin 1 μM): suppressed cisplatin-induced IL-11 secretion | phosphorylation of JAK2 and STAT5 ([4]; SKOV3 CR cells, YCG063 20 μM, 24 hr): significantly reduced | expression and phosphorylation of FRA1 (FRA1): reduced the expression of FRA1 as well as its phosphorylation

N.N.O=C([O-])C1(C(=O)[O-])CCC1.[Pt+2] [carboplatin]
IC50 (SKOV3 cells; SKOV3 parental cells, 5 days): 25.2 µM | fold increase of IC50, SKOV3 CR compared to parental SKOV3 (SKOV3 CR cells [2]; 5 days): 4 fold | IC50 (SKOV3 CR cells [2]; SKOV3 CR cells, 5 days): 118 µM

B1: recombinant IL-11: recombinant human IL-11 (R&D Systems) (protein, UniProt P20809 22-199, looked up)
Interleukin-11: PGPPPGPPRVSPDPRAELDSTVLLTRSLLADTRQLAAQLRDKFPADGDHNLDSLPTLAMSAGALGALQLPGVLTRLRADLLSYLRHVQWLRRAGGSSLKTLEPELGTLQARLDRLLRRLQLLMSRLALPQPPPDPPAPPLAPPSSAWGGIRAAHAILGGLHLTLDWAVRGLLLLKTRL
resistance of SKOV3 cells to cisplatin (proliferation) (SKOV3 cells; IL-11 for 4 hr then cisplatin 5 days): significantly increased its resistance to cisplatin | phosphorylation of JAK2 and STAT5 ([4]; SKOV3 parental cells, 10 ng/mL IL-11 for 4 hr): did increase the phosphorylation of JAK2 (Y1007/1008) as well as phosphorylation of STAT5 (Y694)
